The target in one assay is T1, TYK2 (Homo sapiens, UniProt P29597). Nature of the assay: TYK2 degradation MSD assay in human PBMC cells. It is filed as cell-based. Also noted: endogenous in cells; host or cells: human PBMC. The conditions noted are these: 4 to 24 hours incubation, read-out: TYK2 MSD DC50 rating in human PBMC. The method in brief:
(§1)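 Compound-driven TYK2 loss is measured with a Meso Scale Discovery sandwich assay on whole-cell lysates. Cells are incubated 4 to 24 hours at 37° C with nine 1:3-diluted doses topping at 1 to 10 μM, and DC50 values derive from four-parameter curve fitting.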
T1 sequence (P29597 whole entry): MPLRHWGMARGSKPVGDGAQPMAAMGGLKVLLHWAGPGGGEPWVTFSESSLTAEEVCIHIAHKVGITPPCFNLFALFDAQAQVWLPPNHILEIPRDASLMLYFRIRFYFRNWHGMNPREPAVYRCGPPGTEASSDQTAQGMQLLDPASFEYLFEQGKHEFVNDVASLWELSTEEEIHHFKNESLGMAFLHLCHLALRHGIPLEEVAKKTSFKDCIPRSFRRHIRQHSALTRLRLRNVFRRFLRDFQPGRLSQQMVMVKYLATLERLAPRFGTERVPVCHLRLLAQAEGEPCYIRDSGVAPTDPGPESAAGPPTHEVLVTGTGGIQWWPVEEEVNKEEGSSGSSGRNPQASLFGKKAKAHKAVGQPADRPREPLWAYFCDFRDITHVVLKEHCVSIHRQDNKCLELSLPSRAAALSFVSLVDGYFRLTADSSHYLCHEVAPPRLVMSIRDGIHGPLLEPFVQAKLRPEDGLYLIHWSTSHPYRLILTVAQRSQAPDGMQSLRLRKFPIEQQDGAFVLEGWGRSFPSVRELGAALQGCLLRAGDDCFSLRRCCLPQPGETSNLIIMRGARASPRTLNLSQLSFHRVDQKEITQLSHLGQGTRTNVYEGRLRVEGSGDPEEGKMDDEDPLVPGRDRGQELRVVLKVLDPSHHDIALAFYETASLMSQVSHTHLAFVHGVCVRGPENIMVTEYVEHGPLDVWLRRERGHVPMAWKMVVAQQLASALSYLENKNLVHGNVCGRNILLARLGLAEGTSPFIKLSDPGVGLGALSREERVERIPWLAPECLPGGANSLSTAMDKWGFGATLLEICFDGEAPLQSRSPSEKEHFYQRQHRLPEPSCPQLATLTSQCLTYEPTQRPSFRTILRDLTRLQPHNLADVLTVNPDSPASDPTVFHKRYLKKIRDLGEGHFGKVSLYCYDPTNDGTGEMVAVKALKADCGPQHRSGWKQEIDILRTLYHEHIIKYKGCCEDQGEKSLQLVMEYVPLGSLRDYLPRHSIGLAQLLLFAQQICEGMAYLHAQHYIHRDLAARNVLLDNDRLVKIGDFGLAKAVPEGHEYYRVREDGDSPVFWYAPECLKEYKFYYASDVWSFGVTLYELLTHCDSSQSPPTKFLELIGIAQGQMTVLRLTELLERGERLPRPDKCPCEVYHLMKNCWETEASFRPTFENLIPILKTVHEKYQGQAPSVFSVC
`CNc1cc(Nc2cccn(-c3cccc(C(=O)NCCOCCOCCOCCOCCc4ccc5c(c4)n(C)c(=O)n5C4CCC(=O)NC4=O)c3)c2=O)nn2c(C(=O)N[C@@H]3C[C@@H]3F)cnc12` (stereo partly drawn) [Example K239]: the DC50 – broadly, the midpoint of the concentration-degradation curve – is more than 100 nM.
Same read-out and setting: next, `CNc1cc(Nc2cccn(-c3cccc(C(=O)NCCOCCOCCOCCOCCc4cccc5c4n(C)c(=O)n5C4CCC(=O)NC4=O)c3)c2=O)nn2c(C(=O)N[C@@H]3C[C@@H]3F)cnc12` (stereo partly drawn) [Example K240]: more than 100 nM; `CNc1cc(Nc2cccn(-c3cc(C(=O)NCCOCCOCCOCCOCCc4ccc5c(c4)n(C)c(=O)n5C4CCC(=O)NC4=O)ccn3)c2=O)nn2c(C(=O)N[C@@H]3C[C@@H]3F)cnc12` (stereo partly drawn) [Example K241]: more than 100 nM.
In the case of `CNc1cc(Nc2cccn(-c3cc(C(=O)NCCOCCOCCOCCOCCc4cccc5c4n(C)c(=O)n5C4CCC(=O)NC4=O)ccn3)c2=O)nn2c(C(=O)N[C@@H]3C[C@@H]3F)cnc12` (stereo partly drawn) [Example K242], the DC50 was more than 100 nM.
Regarding `CNc1cc(Nc2cccn(-c3cccc(C(=O)NCCOCCOCCOCCOCCOCCOCCc4ccc5c(c4)n(C)c(=O)n5C4CCC(=O)NC4=O)c3)c2=O)nn2c(C(=O)N[C@@H]3C[C@@H]3F)cnc12` (stereo partly drawn) [Example K243], the DC50 is more than 100 nM.
Still for that read-out and setting: in the case of `CNc1cc(Nc2cccn(-c3cc(C(=O)NCCOCCOCCOCCOCCOCCOCCc4cccc5c4n(C)c(=O)n5C4CCC(=O)NC4=O)ccn3)c2=O)nn2c(C(=O)N[C@@H]3C[C@@H]3F)cnc12` (stereo partly drawn) [Example K244] it was more than 100 nM; in that of `CNc1cc(Nc2cccn(-c3cc(C(=O)NCCOCCOCCOCCOCCOCCOCCc4ccc5c(c4)n(C)c(=O)n5C4CCC(=O)NC4=O)ccn3)c2=O)nn2c(C(=O)N[C@@H]3C[C@@H]3F)cnc12` (stereo partly drawn) [Example K245], more than 100 nM.
On the same count and under the same terms, in the case of `CNc1cc(Nc2cccc(C(=O)NCCCCc3ccc4c(c3)n(C)c(=O)n4C3CCC(=O)NC3=O)c2)nn2c(C(=O)N[C@@H]3C[C@@H]3F)cnc12` (stereo partly drawn) [Example K247] it was more than 100 nM; in that of `CNc1cc(Nc2cccc(C(=O)NCCCCc3cccc4c3n(C)c(=O)n4C3CCC(=O)NC3=O)c2)nn2c(C(=O)N[C@@H]3C[C@@H]3F)cnc12` (stereo partly drawn) [Example K248], more than 100 nM; in that of `CNc1cc(Nc2cccc(C(=O)NCCCCCCc3ccc4c(c3)n(C)c(=O)n4C3CCC(=O)NC3=O)c2)nn2c(C(=O)N[C@@H]3C[C@@H]3F)cnc12` (stereo partly drawn) [Example K249], more than 100 nM.
The same measure, in the same setting: next, `CNc1cc(Nc2cccc(C(=O)NCCCCCCc3cccc4c3n(C)c(=O)n4C3CCC(=O)NC3=O)c2)nn2c(C(=O)N[C@@H]3C[C@@H]3F)cnc12` (stereo partly drawn) [Example K250]: less than 1 nM.
As for `CNc1cc(Nc2cccc(C(=O)NCCCCCCCCc3ccc4c(c3)n(C)c(=O)n4C3CCC(=O)NC3=O)c2)nn2c(C(=O)N[C@@H]3C[C@@H]3F)cnc12` (stereo partly drawn) [Example K251], the DC50 is less than 1 nM.
Same read-out and setting: in the case of `CNc1cc(Nc2ccccc2C(=O)NCCCCc2ccc3c(c2)n(C)c(=O)n3C2CCC(=O)NC2=O)nn2c(C(=O)N[C@@H]3C[C@@H]3F)cnc12` (stereo partly drawn) [Example K252] it was more than 100 nM.
On the same count and under the same terms, in the case of `CNc1cc(Nc2ccccc2C(=O)NCCCCc2cccc3c2n(C)c(=O)n3C2CCC(=O)NC2=O)nn2c(C(=O)N[C@@H]3C[C@@H]3F)cnc12` (stereo partly drawn) [Example K253] it was more than 100 nM.
On the same count and under the same terms, in the case of `CNc1cc(Nc2cccc(C(=O)NCCCCCCCCc3cccc4c3n(C)c(=O)n4C3CCC(=O)NC3=O)c2)nn2c(C(=O)N[C@@H]3C[C@@H]3F)cnc12` (stereo partly drawn) [Example K254] it was 1 to 10 nM.

Another assay concerns the target T1, TYK2. As to the kind of experiment: TYK2 degradation MSD assay in OCI-LY10 cells. The class given is cell-based. Also noted: endogenous in cells; host or cells: EBV-B cells. The conditions noted are these: 4 to 24 hours incubation, read-out: TYK2 MSD DC50 rating in OCI-LY10. In a few lines: as §1
Consider `CNc1cc(Nc2cccn(-c3cccc(C(=O)NCCOCCOCCOCCOCCc4ccc5c(c4)n(C)c(=O)n5C4CCC(=O)NC4=O)c3)c2=O)nn2c(C(=O)N[C@@H]3C[C@@H]3F)cnc12` (stereo partly drawn) [Example K239], for which the 50% degradation concentration (DC50) was more than 100 nM.
The same measure, in the same setting: next, `CNc1cc(Nc2cccn(-c3cccc(C(=O)NCCOCCOCCOCCOCCc4cccc5c4n(C)c(=O)n5C4CCC(=O)NC4=O)c3)c2=O)nn2c(C(=O)N[C@@H]3C[C@@H]3F)cnc12` (stereo partly drawn) [Example K240]: more than 100 nM; `CNc1cc(Nc2cccn(-c3cc(C(=O)NCCOCCOCCOCCOCCc4ccc5c(c4)n(C)c(=O)n5C4CCC(=O)NC4=O)ccn3)c2=O)nn2c(C(=O)N[C@@H]3C[C@@H]3F)cnc12` (stereo partly drawn) [Example K241]: more than 100 nM.
Same read-out and setting: in the case of `CNc1cc(Nc2cccn(-c3cc(C(=O)NCCOCCOCCOCCOCCc4cccc5c4n(C)c(=O)n5C4CCC(=O)NC4=O)ccn3)c2=O)nn2c(C(=O)N[C@@H]3C[C@@H]3F)cnc12` (stereo partly drawn) [Example K242] it was more than 100 nM; in that of `CNc1cc(Nc2cccn(-c3cccc(C(=O)NCCOCCOCCOCCOCCOCCOCCc4ccc5c(c4)n(C)c(=O)n5C4CCC(=O)NC4=O)c3)c2=O)nn2c(C(=O)N[C@@H]3C[C@@H]3F)cnc12` (stereo partly drawn) [Example K243], more than 100 nM.
On to `CNc1cc(Nc2cccn(-c3cc(C(=O)NCCOCCOCCOCCOCCOCCOCCc4cccc5c4n(C)c(=O)n5C4CCC(=O)NC4=O)ccn3)c2=O)nn2c(C(=O)N[C@@H]3C[C@@H]3F)cnc12` (stereo partly drawn) [Example K244], for which the DC50 was more than 100 nM.
On to `CNc1cc(Nc2cccn(-c3cc(C(=O)NCCOCCOCCOCCOCCOCCOCCc4ccc5c(c4)n(C)c(=O)n5C4CCC(=O)NC4=O)ccn3)c2=O)nn2c(C(=O)N[C@@H]3C[C@@H]3F)cnc12` (stereo partly drawn) [Example K245], for which the DC50 was more than 100 nM.
Take `CNc1cc(Nc2cccc(C(=O)NCCCCc3ccc4c(c3)n(C)c(=O)n4C3CCC(=O)NC3=O)c2)nn2c(C(=O)N[C@@H]3C[C@@H]3F)cnc12` (stereo partly drawn) [Example K247]: the DC50 is more than 100 nM.
For the molecule `CNc1cc(Nc2cccc(C(=O)NCCCCc3cccc4c3n(C)c(=O)n4C3CCC(=O)NC3=O)c2)nn2c(C(=O)N[C@@H]3C[C@@H]3F)cnc12` (stereo partly drawn) [Example K248], the half-maximal degradation concentration (DC50) is more than 100 nM.
With `CNc1cc(Nc2cccc(C(=O)NCCCCCCc3ccc4c(c3)n(C)c(=O)n4C3CCC(=O)NC3=O)c2)nn2c(C(=O)N[C@@H]3C[C@@H]3F)cnc12` (stereo partly drawn) [Example K249], the DC50 is more than 100 nM.
The same measure, in the same setting: in the case of `CNc1cc(Nc2cccc(C(=O)NCCCCCCc3cccc4c3n(C)c(=O)n4C3CCC(=O)NC3=O)c2)nn2c(C(=O)N[C@@H]3C[C@@H]3F)cnc12` (stereo partly drawn) [Example K250] it was more than 100 nM.
For `CNc1cc(Nc2cccc(C(=O)NCCCCCCCCc3ccc4c(c3)n(C)c(=O)n4C3CCC(=O)NC3=O)c2)nn2c(C(=O)N[C@@H]3C[C@@H]3F)cnc12` (stereo partly drawn) [Example K251], the DC50 is more than 100 nM.
Same read-out and setting: next, `CNc1cc(Nc2ccccc2C(=O)NCCCCc2ccc3c(c2)n(C)c(=O)n3C2CCC(=O)NC2=O)nn2c(C(=O)N[C@@H]3C[C@@H]3F)cnc12` (stereo partly drawn) [Example K252]: more than 100 nM.
Still for that read-out and setting: in the case of `CNc1cc(Nc2ccccc2C(=O)NCCCCc2cccc3c2n(C)c(=O)n3C2CCC(=O)NC2=O)nn2c(C(=O)N[C@@H]3C[C@@H]3F)cnc12` (stereo partly drawn) [Example K253] it was more than 100 nM.
As for `CNc1cc(Nc2cccc(C(=O)NCCCCCCCCc3cccc4c3n(C)c(=O)n4C3CCC(=O)NC3=O)c2)nn2c(C(=O)N[C@@H]3C[C@@H]3F)cnc12` (stereo partly drawn) [Example K254], the 50% degradation concentration (DC50) is more than 100 nM.

The target in another assay is T1, TYK2. As to the kind of experiment: TYK2 degradation MSD assay in EBV-B cells. Also noted: endogenous in cells; host or cells: EBV-B cells. The conditions noted are these: 4 to 24 hours incubation, read-out: TYK2 MSD DC50 rating in EBV-B. It is filed as cell-based. The method in brief:
as §1
As for `CNc1cc(Nc2cccn(-c3cccc(C(=O)NCCOCCOCCOCCOCCc4ccc5c(c4)n(C)c(=O)n5C4CCC(=O)NC4=O)c3)c2=O)nn2c(C(=O)N[C@@H]3C[C@@H]3F)cnc12` (stereo partly drawn) [Example K239], the DC50 is more than 100 nM.
Regarding `CNc1cc(Nc2cccn(-c3cccc(C(=O)NCCOCCOCCOCCOCCc4cccc5c4n(C)c(=O)n5C4CCC(=O)NC4=O)c3)c2=O)nn2c(C(=O)N[C@@H]3C[C@@H]3F)cnc12` (stereo partly drawn) [Example K240], the half-maximal degradation concentration (DC50) was more than 100 nM.
Take `CNc1cc(Nc2cccn(-c3cc(C(=O)NCCOCCOCCOCCOCCc4ccc5c(c4)n(C)c(=O)n5C4CCC(=O)NC4=O)ccn3)c2=O)nn2c(C(=O)N[C@@H]3C[C@@H]3F)cnc12` (stereo partly drawn) [Example K241]: the DC50 is more than 100 nM.
On the same count and under the same terms, in the case of `CNc1cc(Nc2cccn(-c3cc(C(=O)NCCOCCOCCOCCOCCc4cccc5c4n(C)c(=O)n5C4CCC(=O)NC4=O)ccn3)c2=O)nn2c(C(=O)N[C@@H]3C[C@@H]3F)cnc12` (stereo partly drawn) [Example K242] it was more than 100 nM; in that of `CNc1cc(Nc2cccn(-c3cccc(C(=O)NCCOCCOCCOCCOCCOCCOCCc4ccc5c(c4)n(C)c(=O)n5C4CCC(=O)NC4=O)c3)c2=O)nn2c(C(=O)N[C@@H]3C[C@@H]3F)cnc12` (stereo partly drawn) [Example K243], more than 100 nM.
As for `CNc1cc(Nc2cccn(-c3cc(C(=O)NCCOCCOCCOCCOCCOCCOCCc4cccc5c4n(C)c(=O)n5C4CCC(=O)NC4=O)ccn3)c2=O)nn2c(C(=O)N[C@@H]3C[C@@H]3F)cnc12` (stereo partly drawn) [Example K244], the DC50 is more than 100 nM.
For the molecule `CNc1cc(Nc2cccn(-c3cc(C(=O)NCCOCCOCCOCCOCCOCCOCCc4ccc5c(c4)n(C)c(=O)n5C4CCC(=O)NC4=O)ccn3)c2=O)nn2c(C(=O)N[C@@H]3C[C@@H]3F)cnc12` (stereo partly drawn) [Example K245], the DC50 is more than 100 nM.
Still for that read-out and setting: next, `CNc1cc(Nc2cccc(C(=O)NCCCCc3ccc4c(c3)n(C)c(=O)n4C3CCC(=O)NC3=O)c2)nn2c(C(=O)N[C@@H]3C[C@@H]3F)cnc12` (stereo partly drawn) [Example K247]: more than 100 nM; `CNc1cc(Nc2cccc(C(=O)NCCCCc3cccc4c3n(C)c(=O)n4C3CCC(=O)NC3=O)c2)nn2c(C(=O)N[C@@H]3C[C@@H]3F)cnc12` (stereo partly drawn) [Example K248]: more than 100 nM; `CNc1cc(Nc2cccc(C(=O)NCCCCCCc3ccc4c(c3)n(C)c(=O)n4C3CCC(=O)NC3=O)c2)nn2c(C(=O)N[C@@H]3C[C@@H]3F)cnc12` (stereo partly drawn) [Example K249]: more than 100 nM.
The same measure, in the same setting: next, `CNc1cc(Nc2cccc(C(=O)NCCCCCCc3cccc4c3n(C)c(=O)n4C3CCC(=O)NC3=O)c2)nn2c(C(=O)N[C@@H]3C[C@@H]3F)cnc12` (stereo partly drawn) [Example K250]: more than 100 nM; `CNc1cc(Nc2cccc(C(=O)NCCCCCCCCc3ccc4c(c3)n(C)c(=O)n4C3CCC(=O)NC3=O)c2)nn2c(C(=O)N[C@@H]3C[C@@H]3F)cnc12` (stereo partly drawn) [Example K251]: more than 100 nM; `CNc1cc(Nc2ccccc2C(=O)NCCCCc2ccc3c(c2)n(C)c(=O)n3C2CCC(=O)NC2=O)nn2c(C(=O)N[C@@H]3C[C@@H]3F)cnc12` (stereo partly drawn) [Example K252]: more than 100 nM.
Turning to `CNc1cc(Nc2ccccc2C(=O)NCCCCc2cccc3c2n(C)c(=O)n3C2CCC(=O)NC2=O)nn2c(C(=O)N[C@@H]3C[C@@H]3F)cnc12` (stereo partly drawn) [Example K253], the half-maximal degradation concentration (DC50) was more than 100 nM.
The same measure, in the same setting: next, `CNc1cc(Nc2cccc(C(=O)NCCCCCCCCc3cccc4c3n(C)c(=O)n4C3CCC(=O)NC3=O)c2)nn2c(C(=O)N[C@@H]3C[C@@H]3F)cnc12` (stereo partly drawn) [Example K254]: more than 100 nM.

The values above are taken from patent publication US20250051338A1, “TYK2 DEGRADERS AND USES THEREOF” (Kymera Therapeutics, Inc., priority 2021, published 2025).
